According to patent publication US20250361230A1, “LATS Inhibitors and Uses Thereof” (The USA, as Represented by the Secretary, Dept. of Heath …, priority 2022, published 2025):

What was measured:
Type in all cases: biochemical
[1] = target: T1, LATS2 (Homo sapiens, UniProt Q9NRM7); experiment: RBC HotSpot kinase assay (33P-ATP, P81 filter-binding), LATS2; settings: Table 28, biochemical kinase assay; read-out: LATS2 IC50
T1 sequence (Q9NRM7 1-1088): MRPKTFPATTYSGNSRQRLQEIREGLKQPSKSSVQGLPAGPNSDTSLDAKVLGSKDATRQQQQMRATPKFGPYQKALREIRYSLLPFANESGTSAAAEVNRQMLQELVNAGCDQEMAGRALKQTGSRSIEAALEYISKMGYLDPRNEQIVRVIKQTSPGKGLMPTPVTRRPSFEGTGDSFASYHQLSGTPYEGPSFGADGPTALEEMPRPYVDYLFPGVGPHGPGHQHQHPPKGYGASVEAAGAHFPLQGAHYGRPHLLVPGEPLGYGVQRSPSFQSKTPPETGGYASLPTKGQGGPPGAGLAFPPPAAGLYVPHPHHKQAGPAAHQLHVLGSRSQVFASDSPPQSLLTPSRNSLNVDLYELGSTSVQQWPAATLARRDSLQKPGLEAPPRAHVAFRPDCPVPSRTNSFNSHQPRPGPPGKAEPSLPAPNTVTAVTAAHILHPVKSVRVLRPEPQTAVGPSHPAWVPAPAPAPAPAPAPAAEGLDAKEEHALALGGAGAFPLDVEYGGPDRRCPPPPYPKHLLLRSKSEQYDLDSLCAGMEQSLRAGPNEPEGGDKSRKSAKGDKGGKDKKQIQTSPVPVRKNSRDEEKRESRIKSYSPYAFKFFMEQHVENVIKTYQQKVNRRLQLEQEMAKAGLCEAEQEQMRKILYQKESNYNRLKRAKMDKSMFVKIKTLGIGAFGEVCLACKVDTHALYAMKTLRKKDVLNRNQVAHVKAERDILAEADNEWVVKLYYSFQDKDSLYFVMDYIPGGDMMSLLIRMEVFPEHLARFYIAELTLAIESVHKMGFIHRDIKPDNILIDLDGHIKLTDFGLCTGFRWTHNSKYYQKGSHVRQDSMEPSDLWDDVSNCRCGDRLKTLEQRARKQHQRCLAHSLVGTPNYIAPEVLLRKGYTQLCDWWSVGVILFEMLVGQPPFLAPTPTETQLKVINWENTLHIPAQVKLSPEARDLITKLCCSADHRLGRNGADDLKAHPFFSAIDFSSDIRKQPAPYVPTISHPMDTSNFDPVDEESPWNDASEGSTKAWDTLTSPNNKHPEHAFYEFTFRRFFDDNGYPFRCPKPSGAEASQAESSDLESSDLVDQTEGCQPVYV
In short: (§1)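 IC50 in nM was derived from 10-point, single-replicate titrations. Read-out was radiometric P81 filter binding following a 2 h room-temperature reaction with 33P-ATP, after 20 min compound preincubation.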

[2] = target: T2, LATS1 (Homo sapiens, UniProt O95835); experiment: RBC HotSpot kinase assay (33P-ATP, P81 filter-binding), LATS1; settings: Table 28, biochemical kinase assay; read-out: LATS1 IC50
T2 sequence (O95835 1-1130): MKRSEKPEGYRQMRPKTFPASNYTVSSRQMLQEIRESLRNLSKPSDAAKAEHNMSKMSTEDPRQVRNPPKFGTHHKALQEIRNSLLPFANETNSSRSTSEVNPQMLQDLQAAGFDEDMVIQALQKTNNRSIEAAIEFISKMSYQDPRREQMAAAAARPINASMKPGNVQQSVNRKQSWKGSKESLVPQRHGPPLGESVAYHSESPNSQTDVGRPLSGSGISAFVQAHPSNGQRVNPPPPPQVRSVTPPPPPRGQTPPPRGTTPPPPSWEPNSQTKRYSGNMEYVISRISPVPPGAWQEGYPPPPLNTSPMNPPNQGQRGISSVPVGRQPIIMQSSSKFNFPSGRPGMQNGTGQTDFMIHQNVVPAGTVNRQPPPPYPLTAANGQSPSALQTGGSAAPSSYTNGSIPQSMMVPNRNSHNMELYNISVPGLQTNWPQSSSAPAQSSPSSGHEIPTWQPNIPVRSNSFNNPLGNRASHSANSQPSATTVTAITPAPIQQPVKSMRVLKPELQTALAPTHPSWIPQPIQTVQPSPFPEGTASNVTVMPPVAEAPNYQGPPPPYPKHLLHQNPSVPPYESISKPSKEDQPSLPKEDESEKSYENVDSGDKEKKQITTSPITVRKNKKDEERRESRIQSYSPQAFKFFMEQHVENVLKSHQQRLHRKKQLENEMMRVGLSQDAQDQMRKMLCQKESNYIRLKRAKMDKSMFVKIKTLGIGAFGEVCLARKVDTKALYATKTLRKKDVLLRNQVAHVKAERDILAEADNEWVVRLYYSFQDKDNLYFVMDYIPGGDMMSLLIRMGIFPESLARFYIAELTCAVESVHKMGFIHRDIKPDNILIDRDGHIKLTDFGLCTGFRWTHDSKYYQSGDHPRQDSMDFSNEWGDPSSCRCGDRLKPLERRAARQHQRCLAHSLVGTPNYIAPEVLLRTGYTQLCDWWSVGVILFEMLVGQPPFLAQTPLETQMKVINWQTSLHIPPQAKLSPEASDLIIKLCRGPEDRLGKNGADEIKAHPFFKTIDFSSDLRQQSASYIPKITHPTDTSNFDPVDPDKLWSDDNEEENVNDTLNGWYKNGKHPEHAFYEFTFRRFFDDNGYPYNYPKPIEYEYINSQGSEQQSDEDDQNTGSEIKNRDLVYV
In short: as §1

[3] = target: AKT (Homo sapiens, UniProt P31749); experiment: RBC HotSpot kinase assay (33P-ATP, P81 filter-binding), AKT; settings: Table 28, biochemical kinase assay; read-out: AKT IC50
Sequence of AKT (P31749 whole entry): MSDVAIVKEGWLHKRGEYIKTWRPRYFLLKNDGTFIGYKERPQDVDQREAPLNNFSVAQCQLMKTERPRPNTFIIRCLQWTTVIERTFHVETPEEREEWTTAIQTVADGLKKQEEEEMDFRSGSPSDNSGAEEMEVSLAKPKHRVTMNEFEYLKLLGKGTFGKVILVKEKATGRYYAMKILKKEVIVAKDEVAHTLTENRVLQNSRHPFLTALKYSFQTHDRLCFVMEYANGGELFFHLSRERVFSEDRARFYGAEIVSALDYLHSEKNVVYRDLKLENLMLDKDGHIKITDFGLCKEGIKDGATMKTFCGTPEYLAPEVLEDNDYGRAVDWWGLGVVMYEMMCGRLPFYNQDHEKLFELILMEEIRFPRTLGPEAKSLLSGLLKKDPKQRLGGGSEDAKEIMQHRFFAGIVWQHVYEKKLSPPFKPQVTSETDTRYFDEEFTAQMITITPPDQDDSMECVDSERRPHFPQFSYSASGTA
In short: as §1

Row | Structure (SMILES) | IC50 [1] [nM] | IC50 [2] [nM] | IC50 [3] [nM]
1 | CCN(CC)c1cc(-c2ccnc3[nH]ccc23)ccc1CN [Compound 237, 2-(aminomethyl)-N,N-diethyl-5-(1H-pyrrolo[2,3-b]pyridin-4-yl)aniline] | 23 | 12 | 100
2 | COc1ccc(-c2c[nH]c3nccc(-c4ccc(CN)cc4)c23)cc1 [Compound 239, (4-(3-(4-methoxyphenyl)-1H-pyrrolo[2,3-b]pyridin-4-yl)phenyl) methanamine] | 26 | 67 | 1310
3 | C=C(C)c1cc(-c2ccnc3[nH]ccc23)ccc1CN [Compound 240, (2-(prop-1-en-2-yl)-4-(1H-pyrrolo[2,3-b]pyridin-4-yl)phenyl) methanamine] | 33.8 | 4.3 | 178
4 | C=C(C)c1c[nH]c2nccc(-c3ccc(CN)cc3)c12 [Compound 241, (4-(3-(prop-1-en-2-yl)-1H-pyrrolo[2,3-b]pyridin-4-yl)phenyl) methanamine] | 6 | 19 | 809
5 | CC(C)(O)C#Cc1cc(-c2ccnc3[nH]ccc23)ccc1CN [Compound 244, 4-(2-(aminomethyl)-5-(1H-pyrrolo[2,3-b]pyridin-4-yl)phenyl)-2-methylbut-3-yn-2-ol] | 28 | 20 | 1250
6 | NCc1ccc(-c2ccnc3[nH]cc(-c4cccc(F)c4)c23)cc1 [Compound 247, (4-(3-(3-fluorophenyl)-1H-pyrrolo[2,3-b]pyridin-4-yl)phenyl) methanamine] | 11 | 21 | 1410
7 | Cc1cc(-c2ccnc3[nH]ccc23)cnc1CN [Compound 252, (3-methyl-5-(1H-pyrrolo[2,3-b]pyridin-4-yl)pyridin-2-yl)methanamine] | 12 | 8.2 | 3160
8 | Cc1c[nH]c2nccc(-c3ccc(CN)cc3)c12 [Compound 257, (4-(3-methyl-1H-pyrrolo[2,3-b]pyridin-4-yl)phenyl) methanamine] | 12 | 13 | 625
9 | O=C1NCc2ccc(-c3ccnc4[nH]ccc34)cc21 [Compound 259, 6-(1H-pyrrolo[2,3-b]pyridin-4-yl)isoindolin-1-one] | 253 | 110 | > 10000
10 | O=C1NCCc2cc(-c3ccnc4[nH]ccc34)ccc21 [Compound 260, 6-(1H-pyrrolo[2,3-b]pyridin-4-yl)-3,4-dihydroisoquinol in-1(2H)-one] | 52 | 87 | 6600
11 | NCc1ccc(-c2cc(Cl)nc3[nH]ccc23)cc1 [Compound 262, (4-(6-chloro-1H-pyrrolo[2,3-b]pyridin-4-yl)phenyl) methanamine] | 4420 | > 10000 | > 10000

The remaining lines, values ahead:

Row | IC50 [1] [nM] | IC50 [2] [nM] | IC50 [3] [nM] | Structure (SMILES)
12 | 23.9 | 6.5 | 68.4 | NCc1ccc(-c2ccnc3[nH]cc(Cl)c23)cc1-c1ccccc1 [Compound 234, (5-(3-chloro-1H-pyrrolo[2,3-b]pyridin-4-yl)-[1,1′-biphenyl]-2-yl)methanamine]
13 | 371 | 412 | 788 | CCC(CC)Nc1cc(-c2ccnc3[nH]ccc23)ccc1CN [Compound 235, 2-(aminomethyl)-N-(pentan-3-yl)-5-(1H-pyrrolo[2,3-b]pyridin-4-yl)aniline]
14 | 887 | 772 | 3590 | CCN(CC)c1cc(-c2ccnc3[nH]ccc23)ccc1CNC(C)=O [Compound 236, N-(2-(diethylamino)-4-(1H-pyrrolo[2,3-b]pyridin-4-yl)benzyl)acetamide]
15 | 10 | 11 | 1320 | COc1ccccc1-c1c[nH]c2nccc(-c3ccc(CN)cc3)c12 [Compound 242, (4-(3-(2-methoxyphenyl)-1H-pyrrolo[2,3-b]pyridin-4-yl)phenyl) methanamine]
16 | 24 | 72 | 2330 | NCc1ccc(-c2ccnc3[nH]cc(-c4ccc(F)cc4)c23)cc1 [Compound 243, (4-(3-(4-fluorophenyl)-1H-pyrrolo[2,3-b]pyridin-4-yl)phenyl) methanamine]
17 | 20 | 15 | 378 | NCc1ccc(-c2ccnc3[nH]ccc23)cc1-c1ccccc1 [Compound 246, (5-(1H-pyrrolo[2,3-b]pyridin-4-yl)-[1,1′-biphenyl]-2-yl)methanamine]
18 | 10 | 50 | 2840 | NCc1ccc(-c2ccnc3[nH]cc(-c4ccccc4F)c23)cc1 [Compound 248, (4-(3-(2-fluorophenyl)-1H-pyrrolo[2,3-b]pyridin-4-yl)phenyl) methanamine]
19 | 7.9 | 8.4 | 218 | NCc1ccc(-c2ccnc3[nH]cc(Cl)c23)cc1Cl [Compound 249, (2-chloro-4-(3-chloro-1H-pyrrolo[2,3-b]pyridin-4-yl)phenyl) methanamine]
20 | 389 | 893 | > 10000 | Cc1cc2c(-c3ccc(CN)cc3)ccnc2[nH]1 [Compound 251, (4-(2-methyl-1H-pyrrolo[2,3-b]pyridin-4-yl)phenyl) methanamine]
21 | 4260 | 9000 | > 10000 | Cc1cc(-c2ccc(CN)cc2)c2cc[nH]c2n1 [Compound 256, (4-(6-methyl-1H-pyrrolo[2,3-b]pyridin-4-yl)phenyl) methanamine]
22 | 65 | 231 | > 10000 | O=C1NCc2cc(-c3ccnc4[nH]ccc34)ccc21 [Compound 258, 5-(1H-pyrrolo[2,3-b]pyridin-4-yl)isoindolin-1-one]
23 | 10 | 34 | 8830 | NCc1ccc(-c2cc(-c3ccncc3)nc3[nH]ccc23)cc1 [Compound 261, (4-(6-(pyridin-4-yl)-1H-pyrrolo[2,3-b]pyridin-4-yl)phenyl) methanamine]
24 | 72 | 34 | 1190 | NCc1ccc(-c2ccnc3[nH]ccc23)c(F)c1 [Compound 263, (3-fluoro-4-(1H-pyrrolo[2,3-b]pyridin-4-yl)phenyl) methanamine]
25 | 207 | 343 | > 10000 | NC(=O)c1ccc(-c2ccnc3[nH]ccc23)cc1 [Compound 264, 4-(1H-pyrrolo[2,3-b]pyridin-4-yl)benzamide]
